Our source for the IC50 values is patent US8361998B2, “Compounds and their use as IKACh blockers” (AstraZeneca AB, priority 2010, dated 2013).

Structures are written as SMILES. Read-outs that look alike come from different tables or passages of the source.

In this assay the target is T1, human cardiac ion channel proteins hKir3.1/Kir3.4 (Homo sapiens, UniProt P48544+P48549).
T1 construct: expressed in transfected cells
T1 sequence (P48549 1-501): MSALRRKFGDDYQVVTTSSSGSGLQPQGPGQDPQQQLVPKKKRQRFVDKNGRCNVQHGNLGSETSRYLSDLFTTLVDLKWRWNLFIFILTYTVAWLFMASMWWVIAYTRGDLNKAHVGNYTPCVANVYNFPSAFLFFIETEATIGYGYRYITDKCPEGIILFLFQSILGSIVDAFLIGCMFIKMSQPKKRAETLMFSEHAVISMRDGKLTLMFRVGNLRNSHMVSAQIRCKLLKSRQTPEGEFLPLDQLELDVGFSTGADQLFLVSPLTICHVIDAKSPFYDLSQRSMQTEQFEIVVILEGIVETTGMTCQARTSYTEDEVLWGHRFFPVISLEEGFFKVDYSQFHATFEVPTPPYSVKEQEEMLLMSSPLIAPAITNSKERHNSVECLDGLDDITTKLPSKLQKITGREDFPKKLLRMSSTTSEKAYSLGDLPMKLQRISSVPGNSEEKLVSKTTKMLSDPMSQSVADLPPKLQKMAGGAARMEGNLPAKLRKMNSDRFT
T1 sequence (P48544 1-419): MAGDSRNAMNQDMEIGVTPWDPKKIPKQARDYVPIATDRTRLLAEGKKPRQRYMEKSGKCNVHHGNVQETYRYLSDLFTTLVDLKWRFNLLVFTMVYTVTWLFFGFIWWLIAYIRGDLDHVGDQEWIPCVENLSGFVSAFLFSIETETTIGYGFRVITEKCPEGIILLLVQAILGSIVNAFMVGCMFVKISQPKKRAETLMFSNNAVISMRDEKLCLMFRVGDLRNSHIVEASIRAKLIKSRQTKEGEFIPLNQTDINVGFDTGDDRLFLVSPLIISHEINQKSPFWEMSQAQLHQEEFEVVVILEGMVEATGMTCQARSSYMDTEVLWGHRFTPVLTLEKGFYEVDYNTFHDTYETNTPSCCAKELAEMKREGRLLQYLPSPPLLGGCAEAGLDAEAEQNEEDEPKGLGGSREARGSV
The experiment in a line: Atomic Absorption Screening (AAS) Rb efflux assay of hKir3.1/Kir3.4 block, carbachol/high K+ stimulated, 10-pt or 7-pt CR. The format is cell-based. The conditions noted are these: AAS Rb efflux, CHO-K1 cells expressing hKir3.1/Kir3.4. Summed up: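 Mean IC50s derive from >4 replicates over 0.003–67 μmol/L (10-point) or >3 replicates over 0.037–27 μmol/L (7-point), both threefold steps. Rb-loaded (3 h, 37° C) CHO-K1 cells stably expressing hKir3.1/Kir3.4 saw compound for 5 min at RT before 10-min channel opening by carbachol 10 μM/KCl 20 mM final. Released Rb was quantified by atomic absorption.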

Setting [1] is: 7-pt CR (0.037 to 27 μmol/L), mean of >3 replicates, read-out: IKACh IC50 7-pt CR, AAS.
[2] abbreviates: 10-pt CR (0.003 to 67 μmol/L), mean of >4 replicates, read-out: IKACh IC50 10-pt CR, AAS.

For orientation: IC50 means the concentration needed to halve the response being measured.

Take `CC(C)[C@@H](CN1CCCC1)N(C)C(=O)c1cccc(Cl)c1F` [Example 16.17, (S)-3-Chloro-2-fluoro-N-methyl-N-(3-methyl-1-(pyrrolidin-1-yl)butan-2-yl)benzamide]: the IC50 under setting [1] is 1.2 µM.
On the same count and under the same terms, the value for `CC(C)[C@@H](CN1CCCC1)N(C)C(=O)c1ccccc1F` [Example 16.18, (S)-2-Fluoro-N-methyl-N-(3-methyl-1-(pyrrolidin-1-yl)butan-2-yl)benzamide] was 11 µM.
Still for that read-out and setting: the figure for `CC(C)[C@@H](CN1CCCC1)N(C)C(=O)c1c(F)cccc1C(F)(F)F` [Example 16.19, (S)-2-Fluoro-N-methyl-N-(3-methyl-1-(pyrrolidin-1-yl)butan-2-yl)-6-(trifluoromethyl)benzamide] is 14 µM; for `CC(C)[C@@H](CN1CCCC1)N(C)C(=O)c1ccccc1C(F)(F)F` [Example 16.20, (S)—N-Methyl-N-(3-methyl-1-(pyrrolidin-1-yl)butan-2-yl)-2-(trifluoromethyl)benzamide] it is 14 µM.
On to `CC(C)[C@@H](CN1CCCC1)N(C)C(=O)c1cc(F)c(F)c(F)c1` [Example 16.21, (S)-3,4,5-Trifluoro-N-methyl-N-(3-methyl-1-(pyrrolidin-1-yl)butan-2-yl)benzamide], for which the 50% inhibitory concentration (IC50) under setting [1] was 12 µM.
For the compound `CC(C)[C@@H](CN1CCCC1)N(C)C(=O)c1cc(F)ccc1F` [Example 16.22, (S)-2,5-Difluoro-N-methyl-N-(3-methyl-1-(pyrrolidin-1-yl)butan-2-yl)benzamide], the IC50 under setting [1] worked out at 18 µM.
Regarding `CC(C)[C@@H](CN1CCCC1)N(C)C(=O)c1ccc(F)cc1C(F)(F)F` [Example 16.23, (S)-4-Fluoro-N-methyl-N-(3-methyl-1-(pyrrolidin-1-yl)butan-2-yl)-2-(trifluoromethyl)benzamide], under setting [1], the half-inhibitory concentration (IC50) worked out at 6.7 µM.
With `CC(C)[C@@H](CN1CCCC1)N(C)C(=O)c1c(F)cccc1F` [Example 16.24, 2,6-Difluoro-N-methyl-N-[(1S)-2-methyl-1-(pyrrolidin-1-ylmethyl)propyl]benzamide], the half-inhibitory concentration (IC50) under setting [1] is over 27 µM and the half-inhibitory concentration (IC50) under setting [2] was found to be 9.8 µM.
As to `Cc1cc(C(=O)N(C)[C@H](CN2CCCCC2)C(C)C)ccc1Cl` [Example 16.25, 4-Chloro-N,3-dimethyl-N-[(1S)-2-methyl-1-(piperidin-1-ylmethyl)propyl]benzamide], under setting [1], the IC50 worked out at 2.8 µM.
On the same count and under the same terms, the figure for `CC(C)[C@@H](CN1CCCCC1)N(C)C(=O)c1ccc(F)cc1Cl` [Example 16.26, 2-Chloro-4-fluoro-N-methyl-N-[(1S)-2-methyl-1-(piperidin-1-yl-methyl)propyl]benzamide] is 4.8 µM.
Same read-out and setting: the figure for `CC(C)[C@@H](CN1CCCCC1)N(C)C(=O)c1ccc(Br)cc1` [Example 16.27, 4-Bromo-N-methyl-N-[(1S)-2-methyl-1-(piperidin-1-ylmethyl)propyl]benzamide] is 4 µM; for `CC(C)[C@@H](CN1CCCCC1)N(C)C(=O)c1ccc(Cl)c(Cl)c1` [Example 16.28, 3,4-Dichloro-N-methyl-N-[(1S)-2-methyl-1-(piperidin-1-ylmethyl)propyl]benzamide] it is 0.84 µM.
On to `Cc1cccc(C(=O)N(C)[C@H](CN2CCCCC2)C(C)C)c1` [Example 16.29, N,3-Dimethyl-N-[(1S)-2-methyl-1-(piperidin-1-ylmethyl)propyl]benzamide], for which the half-inhibitory concentration (IC50) is, setting by setting: under setting [1], 8.8 µM; under setting [2], 9.3 µM.
Consider `CC(C)[C@@H](CN1CCCCC1)N(C)C(=O)c1ccc(Cl)cc1Cl` [Example 16.30, 2,4-Dichloro-N-methyl-N-[(1S)-2-methyl-1-(piperidin-1-ylmethyl)propyl]benzamide], for which, under setting [1], the IC50 worked out at 1.7 µM.
Consider `CC(C)[C@@H](CN1CCCCC1)N(C)C(=O)c1ccc(Cl)cc1F` [Example 16.31, 4-Chloro-2-fluoro-N-methyl-N-[(1S)-2-methyl-1-(piperidin-1-ylmethyl)propyl]-benzamide], for which the half-maximal inhibitory concentration (IC50) under setting [1] is 2.4 µM.
On the same count and under the same terms, the value for `CC(C)[C@@H](CN1CCCCC1)N(C)C(=O)c1cccc(C(F)(F)F)c1` [Example 16.32, N-Methyl-N-[(1S)-2-methyl-1-(piperidin-1-ylmethyl)propyl]-3-(trifluoromethyl)-benzamide] was 4 µM; that for `CC(C)[C@@H](CN1CCCCC1)N(C)C(=O)c1ccc(F)c(Cl)c1` [Example 16.33, 3-Chloro-4-fluoro-N-methyl-N-[(1S)-2-methyl-1-(piperidin-1-ylmethyl)propyl]-benzamide] was 6.7 µM.
Still for that read-out and setting: the figure for `CC(C)[C@@H](CN1CCCCC1)N(C)C(=O)c1ccc(Cl)cc1` [Example 16.34, 4-Chloro-N-methyl-N-[(1S)-2-methyl-1-(piperidin-1-ylmethyl)propyl]benzamide] is 4.3 µM; for `CC(C)[C@@H](CN1CCCCC1)N(C)C(=O)c1cccc(Br)c1` [Example 16.35, (S)-3-Bromo-N-methyl-N-(3-methyl-1-(piperidin-1-yl)butan-2-yl)benzamide] it is 12 µM; for `CC(C)[C@@H](CN1CCCCC1)N(C)C(=O)c1ccc(Br)c(F)c1` [Example 16.36, (S)-4-Bromo-3-fluoro-N-methyl-N-(3-methyl-1-(piperidin-1-yl)butan-2-yl)benzamide] it is 11 µM.
For `CC(C)[C@@H](CN1CCCCC1)N(C)C(=O)c1cccc(Cl)c1` [Example 16.37, (S)-3-Chloro-N-methyl-N-(3-methyl-1-(piperidin-1-yl)butan-2-yl)benzamide], the IC50 stood at 14 µM under setting [1] and 15 µM under setting [2].
For the compound `Cc1c(F)cccc1C(=O)N(C)[C@H](CN1CCCCC1)C(C)C` [Example 16.38, (S)-3-Fluoro-N,2-dimethyl-N-(3-methyl-1-(piperidin-1-yl)butan-2-yl)benzamide], the half-maximal inhibitory concentration (IC50) under setting [1] came to 17 µM.
As to `CC(C)[C@@H](CN1CC[C@H](O)C1)N(C)C(=O)c1cccc(Cl)c1F` [Example 16.39, 3-Chloro-2-fluoro-N-[(1S)-1-{[(3S)-3-hydroxypyrrolidin-1-yl]methyl}-2-methylpropyl]-N-methylbenzamide], the half-inhibitory concentration (IC50) under setting [1] was determined as 3.9 µM.
Same read-out and setting: the figure for `Cc1cc(C(=O)N(C)[C@H](CN2CC[C@H](O)C2)C(C)C)ccc1F` [Example 16.40, 4-Fluoro-N-[(1S)-1-{[(3S)-3-hydroxypyrrolidin-1-yl]methyl}-2-methylpropyl]-N,3-dimethylbenzamide] is 3.2 µM; for `CC(C)[C@@H](CN1CC[C@H](O)C1)N(C)C(=O)c1ccc(OC(F)(F)F)cc1` [Example 16.41, N-[(1S)-1-{[(3S)-3-Hydroxypyrrolidin-1-yl]methyl}-2-methylpropyl]-N-methyl-4-(trifluoromethoxy)benzamide] it is 6.8 µM.
Same read-out and setting: the value for `CC(C)[C@@H](CN1CC[C@H](O)C1)N(C)C(=O)c1cccc(OC(F)(F)F)c1` [Example 16.42, N-[(1S)-1-{[(3S)-3-Hydroxypyrrolidin-1-yl]methyl}-2-methylpropyl]-N-methyl-3-(tri-fluoromethoxy)benzamide] was 3.9 µM.
With `Cc1ccc(C(=O)N(C)[C@H](CN2CC[C@H](O)C2)C(C)C)cc1` [Example 16.43, N-[(1S)-1-{[(3S)-3-Hydroxypyrrolidin-1-yl]methyl}-2-methylpropyl]-N,4-dimethylbenzamide], the IC50 under setting [1] is 5.5 µM.
On the same count and under the same terms, the figure for `CC(C)[C@@H](CN1CC[C@H](O)C1)N(C)C(=O)c1cc(F)cc(C(F)(F)F)c1` [Example 16.44, 3-Fluoro-N-[(1S)-1-{[(3S)-3-hydroxypyrrolidin-1-yl]methyl}-2-methylpropyl]-N-methyl-5-(trifluoromethyl)benzamide] is 8.4 µM.
